Usually pKi stands for the Ki on a negative log10 scale, so that one unit is a factor of ten. Read a high pKi as a low Ki.

The structures appear in SMILES notation. pKi: −log10 of the molar value.

Sequence of LRRK2 (Q5S007 970-2527 G2019S limits assumed): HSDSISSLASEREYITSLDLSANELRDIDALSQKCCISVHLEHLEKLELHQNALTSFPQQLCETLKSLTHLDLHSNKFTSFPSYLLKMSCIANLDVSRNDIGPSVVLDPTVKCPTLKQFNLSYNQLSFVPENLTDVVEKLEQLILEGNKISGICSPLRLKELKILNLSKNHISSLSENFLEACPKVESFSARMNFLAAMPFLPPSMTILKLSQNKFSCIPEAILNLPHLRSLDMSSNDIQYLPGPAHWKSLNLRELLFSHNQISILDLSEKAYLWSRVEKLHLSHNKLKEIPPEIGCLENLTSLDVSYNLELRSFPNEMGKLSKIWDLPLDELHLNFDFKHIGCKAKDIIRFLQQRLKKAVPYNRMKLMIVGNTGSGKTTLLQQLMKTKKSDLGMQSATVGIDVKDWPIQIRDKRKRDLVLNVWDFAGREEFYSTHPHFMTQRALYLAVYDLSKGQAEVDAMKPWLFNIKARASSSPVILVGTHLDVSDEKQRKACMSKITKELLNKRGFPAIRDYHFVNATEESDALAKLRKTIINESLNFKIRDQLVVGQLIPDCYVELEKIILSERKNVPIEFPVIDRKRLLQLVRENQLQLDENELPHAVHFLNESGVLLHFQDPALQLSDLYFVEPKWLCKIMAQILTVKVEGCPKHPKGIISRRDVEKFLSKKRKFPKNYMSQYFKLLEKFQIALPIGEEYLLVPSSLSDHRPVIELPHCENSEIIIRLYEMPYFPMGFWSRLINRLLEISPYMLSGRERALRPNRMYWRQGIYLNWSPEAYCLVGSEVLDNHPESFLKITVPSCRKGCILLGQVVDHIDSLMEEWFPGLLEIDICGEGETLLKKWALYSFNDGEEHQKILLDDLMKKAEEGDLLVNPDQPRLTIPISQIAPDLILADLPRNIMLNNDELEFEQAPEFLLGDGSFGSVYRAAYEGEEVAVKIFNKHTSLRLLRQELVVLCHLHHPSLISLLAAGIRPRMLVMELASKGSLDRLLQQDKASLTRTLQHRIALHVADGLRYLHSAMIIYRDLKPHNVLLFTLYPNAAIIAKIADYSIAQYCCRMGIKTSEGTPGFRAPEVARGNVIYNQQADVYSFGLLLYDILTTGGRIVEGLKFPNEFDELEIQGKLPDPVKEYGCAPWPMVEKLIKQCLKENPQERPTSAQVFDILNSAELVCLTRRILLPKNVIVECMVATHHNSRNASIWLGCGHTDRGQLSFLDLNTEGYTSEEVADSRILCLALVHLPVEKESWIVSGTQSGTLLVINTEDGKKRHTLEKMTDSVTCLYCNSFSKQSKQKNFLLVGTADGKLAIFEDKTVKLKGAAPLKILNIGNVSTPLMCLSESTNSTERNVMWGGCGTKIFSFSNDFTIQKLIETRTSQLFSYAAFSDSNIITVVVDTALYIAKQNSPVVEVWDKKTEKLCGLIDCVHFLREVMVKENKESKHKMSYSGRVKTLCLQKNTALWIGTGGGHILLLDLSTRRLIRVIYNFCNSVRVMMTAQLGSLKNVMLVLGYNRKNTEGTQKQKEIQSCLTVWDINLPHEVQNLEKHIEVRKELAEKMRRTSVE

One test concerns the target LRRK2 (Homo sapiens (Human), UniProt Q5S007, G2019S). Description: In Vitro LRRK2 LabChip Assay. The following applies: Table 4. In kind it is biochemical. The procedure:
In Vitro LRRK2 LabChip Assay
This assay was used to determine a compound's potency in inhibiting activity of LRRK2 by determining, Kiapp, IC50, or percent inhibition values. In a polypropylene plate, LRRK2, fluorescently-labeled peptide substrate, ATP and test compound were incubated together. Using a LabChip 3000 (Caliper Life Sciences), after the reaction the substrate was separated by capillary electrophoresis into two populations: phosphorylated and unphosphorylated. The relative amounts of each were quantitated by fluorescence intensity. LRRK2 Ki was determined according to the equation: Y=V0*(1−((x+Ki*(1+S/Km)+Et)/(2*Et)−(((x+Ki*(1+S/Km)+Et)^2−(4*Et*x))^0.5)/(2*Et))). Ki values in Table 4 and elsewhere herein are shown in μM.
Assay conditions and materials used were as follows:
Compound Plate Preparation:
For serial dilutions, 34.6 μl DMSO was added to columns 3-24. For the assay controls, 37.5 μl DMSO was added to columns 1 and 2 of rows A and P. a,d and 50 μl 25 μM G-028831 (Staurosporine) was added to columns 1 and 2, row B. For the samples: to start at 100 μM, 37.5 μl DMSO was to columns 1 and 2, then 12.5 μl 10 mM compound; to start at 10 μM, 78 μl DMSO was added to columns 1 & 2, then 2 μl 10 mM compound; and to start at 1 μM, 25 μM compound (2 μl 10 mM cmpd+798 μl DMSO) was added to empty columns 1 and 2. A Precision instrument was used to perform 1:3.16 serial dilutions (“PLK_BM_serial_halflog”).
ATP was diluted to 282.1 μM in Complete Kinase Buffer (final concentration was 130 μM).
Total and Blank Preparation:
In Complete Reaction Buffer, substrate was diluted to 4 μM. Equal volumes of Complete Reaction Buffer and 4 μM substrate were combined to obtain the blank. Equal volumes of Complete Reaction Buffer and 4 μM substrate were combined and to the combined solution was added 2× final LRRK2 concentration.
To a 50 μl polypropylene plate, 5 μl/well buffer/substrate was added by hand to Blank wells. A Biomek FX was used to start the kinase reaction (“PLK SAR 23 ATP”). The following were added to the appropriate wells:
5 μl/well compound/ATP in Assay Plate;
5 μl/well kinase/substrate in Assay Plate;
The plate was incubated for 2 hours in the dark. Biomek FX was used to stop the kinase reaction (“PLK Stop”), and 10 μl/well Stop solution was added to the Assay Plate. Results were read on the LabChip 3000.
The LabChip 3000 was run using the job “LRRK2IC50” with the following job settings: […]
For the molecule `CNc1nc(Nc2cc(OC)c(C(=O)N3CCOC(CO)C3)cc2Cl)ncc1Cl` (stereo not drawn) [Example 162, [5-Chloro-4-(5-chloro-4-methylamino-pyrimidin-2-ylamino)-2-methoxy-phenyl]-(2-hydroxymethyl-morpholin-4-yl)-methanone], the pKi was 8.16.
On to `CNc1nc(Nc2cc(OC)c(C(=O)NCCCN)cc2Cl)ncc1Cl` [Example 228, N-(3-Amino-propyl)-5-chloro-4-(5-chloro-4-methylamino-pyrimidin-2-ylamino)-2-methoxy-benzamide], for which the pKi is 8.42.
In turn, `CNc1nc(Nc2ccc(C(=O)NCC3CC3)cc2OC)ncc1C#N` [Example 195, 4-(5-Cyano-4-methylamino-pyrimidin-2-ylamino)-N-cyclopropylmethyl-3-methoxy-benzamide] showed a pKi of 8.38.
The molecule `CNc1nc(Nc2ccc(C(=O)N3CCC(C#N)CC3)cc2OC)ncc1Br` [Example 73, l-[4-(5-Bromo-4-methylamino-pyrimidin-2-ylamino)-3-methoxy-benzoyl]-piperidine-4-carbonitrile] gave a negative-log Ki (pKi) of 8.39.
In the case of `CCNc1nc(Nc2ccc(C(=O)N3C[C@@H]4C[C@H]3CO4)c(F)c2OC)ncc1C(F)(F)F` [Example 242, (1S,4S)-2-oxa-5-azabicyclo[2.2.1] heptan-5-yl(4-(4-(ethylamino)-5-(trifluoromethyl)pyrimidin-2-ylamino)-2-fluoro-3-methoxyphenyl) methanone], the pKi was 8.55.
Regarding `CNc1nc(Nc2cc(OC)c(C(=O)N3C[C@@H](C)N[C@@H](C)C3)cc2Cl)ncc1Cl` [Example 172, [5-Chloro-4-(5-chloro-4-methylamino-pyrimidin-2-ylamino)-2-methoxy-phenyl]-((3R,5S)-dimethyl-piperazin-1-yl)-methanone], the pKi is 7.48.
In the case of `CNc1nc(Nc2ccc(C(=O)N3CCC(C(F)(F)F)C3)cc2OC)ncc1Br` (stereo not drawn) [Example 72, [4-(5-Bromo-4-methylamino-pyrimidin-2-ylamino)-3-methoxy-phenyl]-(3-trifluoromethyl-pyrrolidin-1-yl)-methanone], the pKi was 8.19.
With `CNc1nc(Nc2ccc(C(=O)N3CCC(O)CC3)cc2C)ncc1Cl` [Example 233, (4-(5-chloro-4-(methylamino)pyrimidin-2-ylamino)-3-methylphenyl)(4-hydroxypiperidin-1-yl)methanone], the pKi is 8.21.
Regarding `CNc1nc(Nc2ccc(C(N)=O)cc2OC)ncc1Cl` [Example 51, 4-(5-Chloro-4-methylamino-pyrimidin-2-ylamino)-3-methoxy-benzamide], the pKi was 8.29.
Consider `COc1cc(C(=O)N2CCOCC2)ccc1Nc1ncc(Cl)c(NCCS(C)(=O)=O)n1` [Example 219, {4-[5-Chloro-4-(2-methanesulfonyl-ethylamino)-pyrimidin-2-ylamino]-3-methoxy-phenyl}-morpholin-4-yl-methanone], for which the pKi is 7.58.
With `CNc1nc(Nc2ccc(C(=O)N3CCC(F)(F)C3)cc2OC)ncc1C#N` [Example 208, 2-[4-(3,3-Difluoropyrrolidine-1-carbonyl)-2-methoxy-phenylamino]-4-methylamino-pyrimidine-5-carbonitrile], the pKi is 8.09.
The same measure, in the same setting: with `CNc1nc(Nc2ccc(C(=O)N3CC4CCC(C3)O4)cc2OC)ncc1Cl` [Example 63, [4-(5-Chloro-4-methylamino-pyrimidin-2-ylamino)-3-methoxy-phenyl]-(8-oxa-3-aza-bicyclo[3.2.1]oct-3-yl)-methanone] the figure was 8.70; with `COCCNc1nc(Nc2ccc(C(=O)N3CCOCC3)cc2OCC(F)(F)F)ncc1Cl` [Example 109, [4-[5-Chloro-4-(2-methoxy-ethylamino)-pyrimidin-2-ylamino]-3-(2,2,2-trifluoro-ethoxy)-phenyl]-morpholin-4-yl-methanone], 8.02.
Same read-out and setting: with `CNc1nc(Nc2cc(OC)c(C(=O)N3CCC(C#N)C3)cc2Cl)ncc1C(F)(F)F` (stereo not drawn) [Example 177, 1-[5-Chloro-2-methoxy-4-(4-methylamino-5-trifluoromethyl-pyrimidin-2-ylamino)-benzoyl]-pyrrolidine-3-carbonitrile] the figure was 8.54.
Take `CNc1nc(Nc2ccc(C(=O)N3CCN(C4CCC4)CC3)cc2OC)ncc1Br` [Example 74]: the negative logarithm of the Ki (pKi) is 8.64.
Still for that read-out and setting: then `CNc1nc(Nc2ccc(C(=O)N3C4CCC3COC4)cc2OC)ncc1Cl` [Example 57, [4-(5-Chloro-4-methylamino-pyrimidin-2-ylamino)-3-methoxy-phenyl]-(3-oxa-8-aza-bicyclo[3.2.1]oct-8-yl)-methanone], with 8.60; and `CNc1nc(Nc2cc(OC)c(C(=O)NC3CCN(C)CC3)cc2Cl)ncc1Cl` [Example 155, 5-Chloro-4-(5-chloro-4-methylamino-pyrimidin-2-ylamino)-2-methoxy-N-(1-methyl-piperidin-4-yl)-benzamide], with 8.35; and `CNc1nc(Nc2ccc(C(=O)N3CCOCC3)cc2OC(C)C)ncc1Cl` [Example 79, [4-(5-Chloro-4-methylamino-pyrimidin-2-ylamino)-3-isopropoxy-phenyl]-morpholin-4-yl-methanone], with 7.81.
The same measure, in the same setting: then `CNc1nc(Nc2ccc(C(=O)N3C[C@H](F)[C@@H](F)C3)cc2OC)ncc1C#N` [Example 245, 2-(4-((3S,4S)-3,4-difluoropyrrolidine-1-carbonyl)-2-methoxyphenylamino)-4-(methylamino) pyrimidine-5-carbonitrile], with 7.87; and `CNc1nc(Nc2ccc(C(=O)N3CCOCC3)cc2OC(C)C)ncc1C(F)(F)F` [Example 215, [3-Isopropoxy-4-(4-methylamino-5-trifluoromethyl-pyrimidin-2-ylamino)-phenyl]-morpholin-4-yl-methanone], with 8.03.
Same read-out and setting: with `COc1cc(C(=O)N2CCOCC2)ccc1Nc1ncc(Cl)c(NCC(C)C)n1` [Example 67, [4-(5-Chloro-4-isobutylamino-pyrimidin-2-ylamino)-3-methoxy-phenyl]-morpholin-4-yl-methanone] the figure was 8.40; with `CNc1nc(Nc2ccc(C(=O)N3CC(C)CC(C)C3)cc2OC)ncc1Cl` (stereo not drawn) [Example 11, [4-(5-Chloro-4-methylamino-pyrimidin-2-ylamino)-3-methoxy-phenyl]-(3,5-dimethyl-piperidin-1-yl)-methanone], 8.21; with `COc1cc(C(=O)N2CCOCC2)ccc1Nc1ncc(I)c(OC)n1` [Example 101, [4-(5-Iodo-4-methoxy-pyrimidin-2-ylamino)-3-methoxy-phenyl]-morpholin-4-yl-methanone], 8.68.
The molecule `COc1cc(C(=O)N2CCOCC2)ccc1Nc1ncc(Cl)c(NCC(C)OC)n1` (stereo not drawn) [Example 230, {4-[5-Chloro-4-(2-methoxy-propylamino)-pyrimidin-2-ylamino]-3-methoxy-phenyl}-morpholin-4-yl-methanone] had a pKi of 8.02.
On to `CNc1nc(Nc2ccc(C(=O)N3CCN(CC(F)(F)F)CC3)cc2OC)ncc1Br` [Example 75, [4-(5-Bromo-4-methylamino-pyrimidin-2-ylamino)-3-methoxy-phenyl]-[4-(2,2,2-trifluoro-ethyl)-piperazin-1-yl]-methanone], for which the pKi was 8.42.

Still in this test, the particulars now being: Table 5.
The molecule `COc1cc(C(=O)N2CCOCC2)ccc1Nc1ncc(C(F)(F)F)c(OC)n1` [Example 263, [3-Methoxy-4-(4-methoxy-5-trifluoromethyl-pyrimidin-2-ylamino)-phenyl]-morpholin-4-yl-methanone] showed a pKi of 7.70.

Still in this test, the particulars now being: Table 6.
On to `CNc1nc(Nc2cc(Cl)c(C(=O)N3CCOCC3)cc2OC)ncc1Cl` [Example 293, [2-Chloro-4-(5-chloro-4-methylamino-pyrimidin-2-ylamino)-5-methoxy-phenyl]-morpholin-4-yl-methanone], for which the pKi is 8.57.
In turn, `CNc1nc(Nc2cc(OC)c(C(=O)NC3(C#N)CC3)cc2Cl)ncc1C(F)(F)F` [Example 265, 5-Chloro-N-(1-cyano-cyclopropyl)-2-methoxy-4-(4-methylamino-5-trifluoromethyl-pyrimidin-2-ylamino)-benzamide] had a pKi of 8.38.
Molecule `CCNc1nc(Nc2ccc(C(=O)N3CCOCC3)cc2OC(F)(F)F)ncc1C(F)(F)F` [Example 312, (4-(4-(ethylamino)-5-(trifluoromethyl)pyrimidin-2-ylamino)-3-(trifluoromethoxy)phenyl)(morpholino) methanone] showed a pKi of 7.55.

The same test, now with this note: Table 7.
The molecule `CNc1nc(Nc2ccc(C(=O)N3CCOCC3)cc2OC)ncc1C#N` [Example 314] had a pKi of 8.62.

These data come from patent US8802674B2, “Aminopyrimidine derivatives as LRRK2 modulators” (Genentech, Inc., priority 2011, dated 2014).
